Measured values published in EP0558245A1, “Heterobicyclic compounds as antagogists of alpha-1 adrenergic and SHT1A receptors” (priority 1992, dated 1993).
Where a name gives a salt, the structure may show the parent alone. Read-outs that look alike come from different tables or passages of the source.

Experiments:
α₁ receptors = test: [3H]prazosin binding (α1 receptors), rat cerebral cortex membranes; conditions: rat cerebral cortex crude membranes, [3H]prazosin 0.35 nM, 25°C 30 min; read-out: Receptor Binding IC50 (nM) α1
5HT1A receptors = molecular target: T1, 5HT1A receptors (Rattus norvegicus, UniProt P19327); test: [3H]8-OH-DPAT binding (5HT1A receptors), rat hippocampus membranes
T1 construct: Rat hippocampi were homogenized; from tissue; host or cells: rat hippocampus membranes
T1 sequence (P19327 1-422): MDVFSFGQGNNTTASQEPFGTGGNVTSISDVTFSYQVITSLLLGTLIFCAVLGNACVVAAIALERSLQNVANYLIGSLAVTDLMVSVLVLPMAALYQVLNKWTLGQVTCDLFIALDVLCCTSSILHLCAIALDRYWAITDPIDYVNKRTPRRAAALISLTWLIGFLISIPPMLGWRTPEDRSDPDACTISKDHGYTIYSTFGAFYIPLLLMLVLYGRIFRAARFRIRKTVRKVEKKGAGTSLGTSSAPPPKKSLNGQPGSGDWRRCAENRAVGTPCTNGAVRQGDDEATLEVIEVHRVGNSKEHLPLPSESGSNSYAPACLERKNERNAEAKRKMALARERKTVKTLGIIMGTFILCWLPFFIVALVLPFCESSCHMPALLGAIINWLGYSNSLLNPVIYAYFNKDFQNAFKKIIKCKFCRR
Description: Rat hippocampi were homogenized in 50 volumes of original wet weight of ice-cold 50 mM Tris-HCl buffer pH 7.4. The homogenates were centrifuged at 48,000 x g for 10 minutes, and the pellets were resuspended in the same volume of ice-cold buffer, incubated for 10 minutes at 37°C, centrifuged and resuspended two more times. The final pellets obtained were resuspended in the same volume of buffer and incubated according to the conditions reported in the table below.
The incubations were terminated after the appropriate time (see table) by rapid filtration through Whatman GF/B filters using a Brandel cell harvester. The filters were washed twice with 15 ml of ice-cold buffer (see table). The radioactivity retained on the filters was determined by liquid scintillation counting. Nonspecific binding (which amounted generally to 10-30%) was evaluated by adding high concentrations of the specific displacers (see table). All the compounds were initially tested at 1x10⁻⁶ M concentration, and in the presence of significant displacing activity, a complete competition curve was generated (down to a concentration of 10⁻¹¹ M). All the samples were run in triplicate.
The competition curves were always analyzed (to evaluate the IC₅₀ values) by non linear curve fitting of the logistic equation according to the method reported by De Lean et al. (Am. J. Physiol., 235, E97, 1978), utilizing the ALLFIT program [publically available from the National Institutes of Health (N.I.H.) Bethesda, Maryland, USA] written for the IBM PC.

[1] = Acute toxicity in mice after intraperitoneal and oral administration; conditions: mouse, in vivo, female albino Swiss mice, mortality recorded 7 days after administration
Description: Male Sprague Dawley rats [Crl: CD' BR] of 200-300 g b.w., female Albino Swiss mice [Crl: CD-1 (ICR) BR] 20-30 g b.w., and male Beagle dogs (10-12 kg b.w.) were obtained from Charles River, Italy and Nossan (Correzzana, Milan, Italy), respectively. Animals were housed with free access to food and water and maintained on forced light-dark cycle at 22-24°C until the day of experiments.
The acute toxicity of synthesized compounds was evaluated in female albino Swiss mice after intraperitoneal and oral administration. Four logarithmic scaled doses of the compounds were dissolved or suspended in 0.5% Methocel and administered in a volume of 10 ml/kg to groups of 4 mice/dose. Mortality was recorded 7 days after the administration. Data analysis: the LD₅₀ values and their fiducial limits were calculated according to the method of Weil (Biometrics, 8, 249, 1952).

[2] = rat hippocampus crude membranes, [3H]8-OH-DPAT 1.0 nM, 25°C 30 min, read-out: Receptor Binding IC50 (nM) 5-HT1a
[3] = ip, intraperitoneal, read-out: Acute Toxicity in Mice LD50 (mg/kg) i.p.
[4] = oral, read-out: Acute Toxicity in Mice LD50 (mg/kg) p.o.

| SMILES | IC50 (α₁ receptors) | IC50 (5HT1A receptors; [2]) | LD50 at 168 h [1, 3] | LD50 at 168 h [1, 4] | IC50 (5HT1A receptors) |
| --- | --- | --- | --- | --- | --- |
| COc1ccccc1N1CCN(CCOC(=O)/C=C/c2cccc3c(=O)c(C)c(-c4ccccc4)oc23)CC1 [Example 79, (E)-8-<2-{2-[4-(2-methoxyphenyl)-1-piperazinyl]-ethoxycarbonyl}-ethenyl>-3-methyl-4-oxo-2-phenyl-4H-1-benzopyran methanesulphonate] | 77 nM | 141 nM | > 500 mg/kg | > 2000 mg/kg |  |
| CCOc1ccccc1N1CCN(CC(O)c2cccc3c(=O)c(C)c(-c4ccccc4)oc23)CC1.Cl (stereo not shown) [Example 19, 8-{1-Hydroxy-2-[4-(2-ethoxyphenyl)-1-piperazinyl]-ethyl}-3-methyl-4-oxo-2-phenyl-4H-1-benzopyran hydrochloride] | 165 nM | 340 nM | > 1000 mg/kg | > 3000 mg/kg |  |
| COc1ccccc1N1CCN(CC(=O)N(C)Cc2cccc3c(=O)c(C)c(-c4ccccc4)oc23)CC1 [Example 26, 8-{N-methyl-N-[4-(2-methoxyphenyl)-1-piperazinyl]-acetamidomethyl}-3-methyl-4-oxo-2-phenyl-4H-1-benzopyran hydrochloride hydrate] | 270 nM | > 1000 nM | > 500 mg/kg | > 2000 mg/kg |  |
| CS(=O)(=O)O.Cc1c(-c2ccccc2)oc2c(C(=O)NCCCN3CCC(c4ccccc4)CC3)cccc2c1=O [Example 54, 8-[3-(4-phenyl-1-piperidinyl)-propylcarbamoyl]-3-methyl-4-oxo-2-phenyl-4H-1-benzopyran methansulphonate] | 35 nM | 143 nM | 106 mg/kg | 421 mg/kg |  |
| Cc1c(-c2ccccc2)oc2c(C(=O)NCCCN3CCC(C(=O)c4ccc(F)cc4)CC3)cccc2c1=O [Example 56, 8-{3-[4-(4-fluorobenzoyl)-1-piperidinyl]-propyl-carbamoyl}-3-methyl-4-oxo-2-phenyl-4H-1-benzopyran] | 25 nM | 748 nM | > 500 mg/kg |  |  |
| CS(=O)(=O)O.Cc1c(-c2ccccc2)oc2c(C(=O)NCCCN3CCC(c4ccccc4)(c4ccccc4)CC3)cccc2c1=O [Example 55, 8-[3-(4,4-diphenyl-1-piperidinyl)-propylcarbamoyl]-3-methyl-4-oxo-2-phenyl-4H-1-benzopyran methansulphonate] | 291 nM |  | 128 mg/kg | ≥ 2000 mg/kg | > 1000 nM |
| COc1ccccc1N1CCN(CCCN(C(N)=O)c2cccc3c(=O)c(C)c(-c4ccccc4)oc23)CC1 [Example 50, 8-{N-carbamoyl-3-[4-(2-methoxyphenyl)-1-piperazinyl]-propylamino}-3-methyl-4-oxo-2-phenyl-4H-1-benzopyran methanesulphonate hemihydrate] | 39 nM | 300 nM | 211 mg/kg | 299 mg/kg |  |
| COc1ccccc1N1CCN(CCCNS(=O)(=O)c2cccc3c(=O)c(C)c(-c4ccccc4)oc23)CC1.CS(=O)(=O)O [Example 61, 8-{3-[4-(2-methoxyphenyl)-1-piperazinyl]-propylsulphamoyl}-3-methyl-4-oxo-2-phenyl-4H-1-benzopyran methanesulphonate] | 36 nM | 11 nM | 315 mg/kg | 592 mg/kg |  |
| CS(=O)(=O)O.Cc1c(-c2ccccc2)oc2c(C(=O)NCCCN3CCN(c4ncccn4)CC3)cccc2c1=O [Example 58, 8-{3-[4-(2-pyrimidinyl)-1-piperazinyl]-propylcarbamoyl}-3-methyl-4-oxo-2-phenyl-4H-1-benzopyran methanesulphonate] | ≥ 1000 nM | 126 nM | 258 mg/kg | 508 mg/kg |  |
| COc1ccccc1N1CCN(CCNS(=O)(=O)c2cccc3c(=O)c(C)c(-c4ccccc4)oc23)CC1.Cl [Example 48, 8-{2-[4-(2-methoxyphenyl)-1-piperazinyl]-ethylsulphamoyl}-3-methyl-4-oxo-2-phenyl-4H-1-benzopyran hydrochloride] | 104 nM | 5 nM | 500 mg/kg | 1910 mg/kg |  |
| COc1ccccc1OCCNCCCNC(=O)c1cccc2c(=O)c(C)c(-c3ccccc3)oc12.Cl [Example 14, 8-{3-[2-(2-methoxyphenoxy)-ethylamino]-propylcarbamoyl}-3-methyl-4-oxo-2-phenyl-4H-1-benzopyran hydrochloride] | 61 nM | 6 nM | 140 mg/kg | 559 mg/kg |  |
| Cc1c(-c2ccccc2)oc2c(C(=O)NCCCN3CCN(c4ccccc4O)CC3)cccc2c1=O [Example 59, 8-{3-[4-(2-hydroxyphenyl)-1-piperazinyl]-propylcarbamoyl}-3-methyl-4-oxo-2-phenyl-4H-1-benzopyran] | 5 nM | 9 nM | > 500 mg/kg | 278 mg/kg |  |
| CCOC(CN1CCN(c2ccccc2OC)CC1)c1cccc2c(=O)c(C)c(-c3ccccc3)oc12.Cl (stereo not shown) [Example 22, 8-{1-ethoxy-2-[4-(2-methoxyphenyl)-1-piperazinyl]-ethyl}-3-methyl-4-oxo-2-phenyl-4H-1-benzopyran hydrochloride] | 117 nM | 48 nM | > 500 mg/kg | > 2000 mg/kg |  |
| COc1ccccc1N1CCN(CCC(=O)c2cccc3c(=O)c(C)c(-c4ccccc4)oc23)CC1.Cl [Example 4, 8-{3-[4-(2-methoxyphenyl)-1-piperazinyl]-1-oxopropyl}-3-methyl-4-oxo-2-phenyl-4H-1-benzopyran hydrochloride] | 550 nM | 55 nM | 346 mg/kg | 1730 mg/kg |  |
| COc1ccccc1N1CCN(CCNC(=O)Nc2cccc3c(=O)c(C)c(-c4ccccc4)oc23)CC1.CS(=O)(=O)O [Example 38, 8-{2-[4-(2-methoxyphenyl)-1-piperazinyl]-ethylureido}-3-methyl-4-oxo-2-phenyl-4H-1-benzopyran methanesulphonate] | 20 nM | 344 nM | > 500 mg/kg | > 2000 mg/kg |  |
| COc1ccccc1N1CCN(CCNC(=O)/C=C/c2cccc3c(=O)c(C)c(-c4ccccc4)oc23)CC1 [Example 72, E-8-<2-{2-[4-(2-methoxyphenyl)-1-piperazinyl]-ethylcarbamoyl}-ethenyl>-3-methyl-4-oxo-2-phenyl-4H-1-benzopyran methanesulphonate 1.2 H₂0] | 145 nM | 111 nM | 479 mg/kg | > 2000 mg/kg |  |
| COc1ccccc1N1CCN(CCOc2cccc3c(=O)c(C)c(-c4ccccc4)oc23)CC1.Cl.O [Example 39, 8-{2-[4-(2-methoxyphenyl)-1-piperazinyl]-ethoxy}-3-methyl-4-oxo-2-phenyl-4H-1-benzopyran hydrochloride hydrate] | 90 nM | 170 nM | > 1000 mg/kg | > 3000 mg/kg |  |
| Cc1c(-c2ccccc2)oc2c(C(=O)NCCCN3CCC(n4c(=O)[nH]c5ccccc54)CC3)cccc2c1=O [Example 57, 8-{3-[4-(2-oxo-1-benzimidazolinyl)-1-piperidinyl]-propylcarbamoyl-}-3-methyl-4-oxo-2-phenyl-4H-1-benzopyran] | 69 nM | > 1000 nM | 500 mg/kg | > 2000 mg/kg |  |
| COc1ccccc1N1CCN(CCOC(=O)c2cccc3c(=O)c(C)c(-c4ccccc4)oc23)CC1.Cl.Cl [Example 6, 8-{2-[4-(2-methoxyphenyl)-1-piperazinyl]-ethoxycarbonyl}-3-methyl-4-oxo-2-phenyl-4H-1-benzopyran dihydrochloride] | 107 nM | 1000 nM | 233 mg/kg |  |  |
| CCOc1ccccc1OCCNCCOCc1cccc2c(=O)c(C)c(-c3ccccc3)oc12.Cl [Example 28, 8-{2-[2-(2-ethoxyphenoxy)-ethylamino]-ethoxymethyl}-3-methyl-4-oxo-2-phenyl-4H-1-benzopyran hydrochloride] | 120 nM | 96 nM | 203 mg/kg | 1130 mg/kg |  |
| COc1ccccc1N1CCN(CCCNC(=O)c2cccc3c2OCCC3=O)CC1.CS(=O)(=O)O [Example 87, 8-{3-[4-(2-methoxyphenyl)-1-piperazinyl]-propylcarbamoyl}-2,3-dihydro-4-oxo-4H-1-benzopyran methanesulphonate] | 119 nM | 107 nM | 237 mg/kg | > 500 mg/kg |  |
